Consider two compounds from publication PMC3661587, “Estrone-3-Sulphate, a Potential Novel Ligand for Targeting Breast Cancers” (PLoS ONE, 2013).

For the data set the following is noted: mouse, in vivo. On the procedure:
Solid phase extraction (SPE) and HPLC analysis of plasma were performed as previously described with minor modifications, [23]. SPE was performed using Sep-Pak C18 columns (Waters, Mississauga, ON). The column was activated using methanol, followed by water. 100 µL of plasma was then loaded on to the activated column. This was followed by successive washing steps with water and hexane. The analyte was eluted from the column using methanol and then dried under a stream of N2. The sample was reconstituted in DMSO:Methanol 1∶1 v/v prior to HPLC analysis. […] The radioactivity in each eluate was determined by liquid scintillation counting. […] The methanol eluates were used for HPLC analysis.
Separation was performed using a Waters C18 reversed-phase HPLC column (XTerra RP-C18, 5 µm, 4.6×250 mm I.D.) Analytes were eluted using an isocratic-gradient of 20 mM ammonium sulphate buffer (solvent A) and methanol (solvent B). The mobile phase consisted of solvent A/solvent B; 60/40% for 0–5 min, followed by a linear gradient of 60/40% to 25/75% for 5–45 and 25/75% for 45–50 min at a flow rate of 1.0 mL/min and UV detection at 280 nm. The HPLC eluate from the UV detector was collected every minute for over 50 min in eppendorf tubes and radioactivity in each sample was determined.

Each structure is given as a SMILES string. Like-named read-outs stand apart in the source and are kept apart here.

In the case of `C[C@]12CC[C@@H]3c4ccc(O)cc4CC[C@H]3[C@@H]1CC[C@@H]2O` [Estradiol, estradiol], the “% of total radioactivity in plasma” value runs as follows: (2 h) 2.2±1.23%; (6 h) 3.2±0.2%; (48 h) 3.2±0.45%.
`C[C@]12CC[C@@H]3c4ccc(O)cc4CC[C@H]3[C@@H]1CCC2=O` [Estrone, estrone]: the “% of total radioactivity in plasma” value is listed as 1.02±0.24% (2 h) and 1.7±0.8% (6 h).
